From US20170154163A1, “CLINICALLY RELEVANT SYNTHETIC LETHALITY BASED METHOD AND SYSTEM FOR CANCER PROGNOSIS AND THERAPY” (Ramot at Tel-Aviv University Ltd., priority 2015, published 2017)
Where two headings read alike, the source gives them in different places.

Columns and labels:
[1] = tested on: pancreatic cancer cells (Capan-1); assay: Drug combination with olaparib, Combination Index by Chou-Talalay method (CompuSyn); type: cell-based, human; settings: CI<0.9 denotes synergism
Method: The experiment was conducted in triplicates.

[2] = tested on: Liv7k cell line (oral cancer); assay: Drug repurposing screen: growth inhibition of oral cancer cell line under normoxia and hypoxia (nuclei count); type: cell-based; settings: Homo sapiens; for inhibition at 10 µM: 72 h, read-out: Growth Inhibition (GI)
Method: HPV-negative cell line derived from a T3N2b primary tumor of the tongue. The patient received no chemo/radiotherapy prior to tumor excision. Generously gifted by Professor Richard Shaw (Head and Neck Cancer Consultant, Liverpool, UK). Cells are maintained in keratinocyte SFM (Life Technologies), supplemented with 2 mM L-glutamine, 0.2 ng/ml epidermal growth factor (EGF) and 25 μg/ml bovine pituitary extract (BPE). The cell line was tested from mycoplasma contamination and authenticated by exome sequencing and CNV.
1397 compounds from the NIH Clinical Collection (Evotec, San Francisco, Calif.), LOPAC Pfizer (Sigma Aldrich), the Developmental Therapeutics Program (DTP)-Approved Oncology library and the FDA-Approved Drug Library (Selleck Chemicals) were tested at a single concentration of 10 μM. The libraries were received as 10 mM compounds in dimethyl sulfoxide (DMSO). Plates which conflicted with our plate layout were reformatted. The compounds were first diluted 1:50 in serum free media, and then further diluted 1:20 into to 96 well plates containing 5000 cells in 190 μl of keratinocyte SFM supplemented with 2 mM L-glutamine, 0.2 ng/ml EGF and 25 μg/ml BPE. 0.1% DMSO was used as a negative control, and staurosporine (Sigma Aldrich) at a concentration of 1 μM was used as a positive death control in all plates. Each drug was tested for 72 h under 21% and 0.1% O2. The cells were fixed using 4% formaldehyde after 72 h, and stained with DAPI dilactate (Sigma Aldrich). To assess viability, stained nuclei were counted using Perkin Elmer Operetta High Content Microscope.
An experimental screen was designed for testing whether the clinical SL-network can discriminate between cytotoxic and non-cytotoxic drugs, when considering a wide range of oncology and non-oncology drugs. Transcriptomic profiles of an oral cancer cell line under normoxia and hypoxia were obtained. Based on these profiles the network predicted the cell line response to 139 oncology and 531 non-oncology drugs in each condition. […]

Compound	median Combination Index (CI) [1]	inhibition at 10 µM ([2]; hypoxia (0.1% O2)) [%]	inhibition at 10 µM ([2]; normoxia (21% O2)) [%]	IC50 ([2]; normoxia) [µM]
COc1cc([C@@H]2c3cc4c(cc3[C@@H](O[C@@H]3O[C@@H]5CO[C@@H](C)O[C@H]5[C@H](O)[C@H]3O)[C@H]3COC(=O)[C@H]23)OCO4)cc(OC)c1O [Etoposide (VP16), etoposide]	0.718			
O=C(CCCCCCC(=O)Nc1ccccc1)NO [VORINOSTAT, vorinostat]	0.551			
CN(C/C=C/C#CC(C)(C)C)Cc1cccc2ccccc12 [terbinafine]		45.2	81.9	5.8
